Where two headings read alike, the source gives them in different places.
Assays:
Assay type in all cases: cell-based
[1] = test system: Cutibacterium acnes strain 2 (BWH-002 25541381); test: Growth of C. acnes strain 2 in RCM with antibacterial agent, optical density
Method: (§1) Seven different strains of Cutibacterium acnes were grown in test tubes in Reinforced Clostridial Medium (RCM). Each strain was divided into different wells of mulita-well plates (96-well and 384-well plates were used). 80 μl was used and a 1:200 dilution from saturated cultures. Either an antibacterial agent or vehicle (as a control) was added to each well. Absorbance was measured and quantified as optical density (OD) as a proxy for cell biomass. The OD was recorded at regular intervals over several hours. […] The OD at 48 hours was estimated by calculating the average OD between 47 and 49 hours, and this value was used for further analyses. OD600 is the OD at 600 nm. The OD is listed in arbitrary units determined by the spectrophotometers. Such OD data was collected for different concentrations of each antibacterial agent. […] The horizontal axis has units of μM (micromoles per liter).

[2] = test system: Cutibacterium acnes strain 3 (BWH-003 25505801); test: Growth of C. acnes strain 3 in RCM with antibacterial agent, optical density
Method: as §1

[3] = test system: Cutibacterium acnes strain 10 (HM-523 (HL053PA2)); test: Growth of C. acnes strain 10 in RCM with antibacterial agent, optical density
Method: as §1

[4] = test system: Cutibacterium acnes strain 12 (HM-539 (HL086PA1)); test: Growth of C. acnes strain 12 in RCM with antibacterial agent, optical density
Method: as §1

[5] = test system: Cutibacterium acnes strain 13 (HM-552 (HL110PA1)); test: Growth of C. acnes strain 13 in RCM with antibacterial agent, optical density
Method: as §1

[6] = test system: Cutibacterium acnes strain 15 (KPL2008); test: Growth of C. acnes strain 15 in RCM with antibacterial agent, optical density
Method: as §1

[7] = test system: Cutibacterium acnes strain 16 (KPL1847); test: Growth of C. acnes strain 16 in RCM with antibacterial agent, optical density
Method: as §1

[8] = test system: Cutibacterium acnes; test: Effect of antibacterial agents on C. acnes, seven strains taken together; settings: across the tested strains
Method: Seven different strains of Cutibacterium acnes were grown in test tubes in Reinforced Clostridial Medium (RCM). Each strain was divided into different wells of mulita-well plates (96-well and 384-well plates were used). 80 μl was used and a 1:200 dilution from saturated cultures. Either an antibacterial agent or vehicle (as a control) was added to each well. Absorbance was measured and quantified as optical density (OD) as a proxy for cell biomass. The OD was recorded at regular intervals over several hours. […] The OD at 48 hours was estimated by calculating the average OD between 47 and 49 hours, and this value was used for further analyses. OD600 is the OD at 600 nm. The OD is listed in arbitrary units determined by the spectrophotometers.
Such OD data was collected for different concentrations of each antibacterial agent. […] The horizontal axis has units of μM (micromoles per liter). Next, IC50 values were calculated by assessing when the OD value was about 0.5.

[9] = strain 2, OD at 48 hours, RCM, read-out: IC50
[10] = strain 3, OD at 48 hours, RCM, read-out: IC50
[11] = strain 10, OD at 48 hours, RCM, read-out: IC50
[12] = strain 12, OD at 48 hours, RCM, read-out: IC50
[13] = strain 13, OD at 48 hours, RCM, read-out: IC50
[14] = strain 15, OD at 48 hours, RCM, read-out: IC50
[15] = strain 16, OD at 48 hours, RCM, read-out: IC50

Row | IC50 [1, 9] [µM] | IC50 [2, 10] [µM] | IC50 [3, 11] [µM] | IC50 [4, 12] [µM] | IC50 [5, 13] [µM] | IC50 [6, 14] [µM] | IC50 [7, 15] [µM] | IC50 values, in words [8] | SMILES | IC50 ([1]; 48 h) [µM] | IC50 ([2]; 48 h) [µM] | IC50 ([3]; 48 h) [µM] | IC50 ([4]; 48 h) [µM] | IC50 ([5]; 48 h) [µM] | IC50 ([6]; 48 h) [µM] | IC50 ([7]; 48 h) [µM]
1 | 0.039 | 0.16 | 0.078 | 0.0098 | 0.039 | 0.16 | 0.31 |  | C[C@@H](O)[C@H]1C(=O)N2C(C(=O)O)=C(S[C@@H]3CN[C@H](C(=O)Nc4cccc(C(=O)O)c4)C3)[C@H](C)[C@H]12 [Ertapenem] |  |  |  |  |  |  | 
2 | 0.0097 | 0.0098 | 0.0098 | 0.0098 | 0.0098 |  |  | relatively low IC50 values | CO/N=C(\C(=O)N[C@@H]1C(=O)N2C(C(=O)O)=C(CSc3nc(=O)c(=O)[nH]n3C)CS[C@H]12)c1csc(N)n1 [Ceftriaxone] |  |  |  |  |  |  | 
3 | > 5120 | > 5120 | > 5120 | 5120 | 5120 | 5120 | > 5120 |  | Cc1ncc([N+](=O)[O-])n1CCO [Metronidazole] |  |  |  |  |  |  | 
4 | 2560 | > 2560 | 1280 | 2560 | 640 | 640 | 640 |  | O=C(OOC(=O)c1ccccc1)c1ccccc1 [Benzoyl Peroxide] |  |  |  |  |  |  | 
5 | 1280 | 2560 | 2560 | 1280 | 640 | 2560 | 2560 |  | OO [Hydrogen Peroxide] |  |  |  |  |  |  | 
6 |  |  |  |  |  |  |  |  | CN[C@H](CC(C)C)C(=O)N[C@H]1C(=O)N[C@@H](CC(N)=O)C(=O)N[C@H]2C(=O)N[C@H]3C(=O)N[C@H](C(=O)N[C@H](C(=O)O)c4cc(O)cc(O)c4-c4cc3ccc4O)[C@H](O)c3ccc(c(Cl)c3)Oc3cc2cc(c3O[C@@H]2O[C@H](CO)[C@@H](O)[C@H](O)[C@H]2O[C@H]2C[C@](C)(N)[C@H](O)[C@H](C)O2)Oc2ccc(cc2Cl)[C@H]1O [Vancomycin] | 0.16 | 0.15 | 0.16 | 0.31 | 0.16 | 0.31 | 0.31
7 | 640 | 80 | 320 | 160 | 320 | 640 | 160 |  | NC[C@H]1O[C@H](O[C@H]2[C@H](O)[C@@H](O[C@H]3O[C@H](CO)[C@@H](O)[C@H](N)[C@H]3O)[C@H](N)C[C@@H]2N)[C@H](O)[C@@H](O)[C@@H]1O [Kanamycin] |  |  |  |  |  |  | 
8 | 0.31 | 2.5 | 0.31 | 0.16 | 0.31 | 2.5 | 2.5 |  | CO/N=C(\C(=O)N[C@@H]1C(=O)N2C(C(=O)[O-])=C(C[N+]3(C)CCCC3)CS[C@H]12)c1csc(N)n1 [Cefepime] |  |  |  |  |  |  | 
9 | 0.078 | 0.0098 | 0.078 | 0.039 | 0.019 | 0.16 | 0.31 | relatively low IC50 values | CC1(C)S[C@@H]2[C@H](NC(=O)[C@H](N)c3ccc(O)cc3)C(=O)N2[C@H]1C(=O)O [Amoxicillin] |  |  |  |  |  |  | 
